Measurements published in patent US10087416B2, “Culturing pluripotent stem cells” (Agency for Science, Technology and Research, priority 2013, dated 2018).

Tests used:
Format in all cases: cell-based, human
hESCs = experiment: Small molecule treatment of hESCs, expression of pluripotency and lineage markers (qPCR); settings: for Gene expression levels of pluripotency markers NANOG and POU5F1: hESCs treated with individual chemicals for 4 days, FIG. 1C; for Expression level of lineage markers / Expression of NANOG and POU5F1: individual chemicals of combination 22, subcultured onto feeders, harvested after 4 days, FIG. 1F
Description: For routine culture of hESCs in TeSR1 (Stem cell technologies), cells were cultured feeder free on matrigel (BD). Cell media was changed daily. The hESCs were subcultured with 1 mg/ml Dispase (Stem cell technologies) every 5-7 days. 3iL hESCs culture medium contains 1 μM of PD0325901 (Sigma), 2 μM of BIO (Sigma), 2 μM of Dorsomorphin (Sigma) and 10 ng/ml human LIF (Millipore) in TeSR1. 3iL media are prepared fresh and stored at 4° C. for not more than 2 weeks. For treatment with 3iL conditions, hESCs cultured in TeSR1 was treated with 3iL 48 hrs post-seeding. The cells are subsequently subcultured on mitomycin C inactivated mouse fibroblast. Cells are dissociated to single cells using TrypLE (Life Technologies). 3iL medium is refreshed daily and cells are subcultured upon confluency. ROCK inhibitor Thiazovivin is added at a final concentration of 1 μM to enhance cell survival for the first few passages. 3iL hESCs used in all the experiments have been cultured for at least 10 passages for adequate conditioning to the new culture condition.
hESCs were dissociated with dispase and treatment starts 48 hrs post seeding. For single chemical and combinatorial chemical treatment, the small molecules are used at the following final concentrations: 0.5 μM A83-01 (Stemgent), 2 μM BIO (Sigma), 3 μM CHIR99021 (Stemgent), 2 μM Dorsomorphin (Sigma), 8 μM Forskolin (Stemgent), 2 μM IDE-1 (Stemgent), 0.5 μM PD153035 (Sigma), 1 μM PD173074 (Sigma), 1 μM PD0325901 (Sigma), 5 μM Pifithrin-α (Sigma) and 1 μM RepSox (Sigma). All small molecules are reconstituted in DMSO. For PI3K pathway inhibition, LY294002 (Sigma) was used at final concentration of 10 μM.

3iL hESCs = experiment: Signaling pathway inhibitor treatment of 3iL hESCs (pluripotency markers, colony numbers); settings: treated for 10 days, compared to 3iL hESC control, FIG. 4B
Description: The hESC line H1 (WA-01, passage 28) was used for this study. For routine culture of hESCs in TeSR1 (Stem cell technologies), cells were cultured feeder free on matrigel (BD). Cell media was changed daily. The hESCs were subcultured with 1 mg/ml Dispase (Stem cell technologies) every 5-7 days. 3iL hESCs culture medium contains 1 μM of PD0325901 (Sigma), 2 μM of BIO (Sigma), 2 μM of Dorsomorphin (Sigma) and 10 ng/ml human LIF (Millipore) in TeSR1. 3iL media are prepared fresh and stored at 4° C. for not more than 2 weeks. For treatment with 3iL conditions, hESCs cultured in TeSR1 was treated with 3iL 48 hrs post-seeding. The cells are subsequently subcultured on mitomycin C inactivated mouse fibroblast. Cells are dissociated to single cells using TrypLE (Life Technologies). […]
For expression analysis, total RNA was extracted using the TRIzol reagent (Invitrogen) with chloroform and precipitated with isopropanol. […] RNA concentration was determined with the NanoDrop 2000 (Thermo Scientific). 500 ng of RNA was used for each reverse transcription reaction using the SuperScript II Kit (Invitrogen) to produce the cDNA for subsequent quantitative assays. Quantitative real-time PCR (qPCR) analysis was performed with the SYBR Green Master Mix (KAPA) using the ABI PRISM 7900 sequence detection system. […] Samples were multiplexed and sequenced single read 76 bp (HiSeq 2000, Illumina). […]

LIF signaling = LIF signaling activity in hESCs (GP130, phosphorylated STAT3, STAT3 responsive genes, NANOG)
Description: For expression analysis, total RNA was extracted using the TRIzol reagent (Invitrogen) with chloroform and precipitated with isopropanol. The precipitated RNA was centrifuged at 13000 rpm at 4° C. for 10 min. The RNA pellet was washed with 70% ethanol and subsequently reconstituted with DEPC-treated water (AMBION). DNA contaminants were digested with DNASE I (Ambion) at 37° C. for 30 min. The DNASE I enzyme is heat inactivated at 70° C. for 10 min. RNA concentration was determined with the NanoDrop 2000 (Thermo Scientific). 500 ng of RNA was used for each reverse transcription reaction using the SuperScript II Kit (Invitrogen) to produce the cDNA for subsequent quantitative assays. Quantitative real-time PCR (qPCR) analysis was performed with the SYBR Green Master Mix (KAPA) using the ABI PRISM 7900 sequence detection system. For RNA-Seq library preparation, the total RNA was further purified by column (Purelink RNA Mini kit, Ambion). […] Samples were multiplexed and sequenced single read 76 bp (HiSeq 2000, Illumina).
hESCs were lysed with a lysis buffer (50 mM Tris-HCl, pH 8.0, 150 mM NaCl, 10 μM ZnCl, 0.5% Nonidet P-40, 5% glycerol) supplemented with protease inhibitor cocktail (Merck). Protein concentration was measured with a Bradford assay kit (Bio-Rad). […] After washing with PBST, signals were detected using the Western Blotting Luminol Reagents (Santa Cruz).

Compound | Gene expression levels of pluripotency markers NANOG and POU5F1 (hESCs) | Expression of NANOG and POU5F1 (hESCs) | also measured
Cc1cccc(-c2nn(C(=S)Nc3ccccc3)cc2-c2ccnc3ccccc23)n1 [A83-01] | downregulation |  | Pluripotency markers NANOG, OCT4 and TRA-1-60 in 3iL hESCs (3iL hESCs): loss of pluripotency markers
O=C1Nc2cc(Br)ccc2/C1=C1/Nc2ccccc2/C1=N\O [BIO, 6-bromoindirubin-3′-oxime] | downregulation | downregulated | Expression level of lineage markers (hESCs): stronger upregulation of T and GATA6
c1cc(-c2cnn3cc(-c4ccc(OCCN5CCCCC5)cc4)cnc23)ccn1 [DOR, 6-[4-(2-Piperidin-1-ylethoxy)phenyl]-3-pyridin-4-ylpyrazolo[1,5-a]pyrimidine] |  | remains in a comparable range | 
O=C(NOC[C@H](O)CO)c1ccc(F)c(F)c1Nc1ccc(I)cc1F [PD03] |  | remains in a comparable range | Expression level of lineage markers (hESCs): increase in the PAX6 transcript
CCN(CC)CCCCNc1ncc2cc(-c3cc(OC)cc(OC)c3)c(NC(=O)NC(C)(C)C)nc2n1 [PD173074] |  |  | Pluripotency markers NANOG, OCT4 and TRA-1-60 in 3iL hESCs (3iL hESCs): loss of pluripotency markers
Cc1cccc(-c2[nH]ncc2-c2ccc3ncccc3n2)n1 [RepSOX] | downregulation |  | 
LIF: leukemia inhibitory factor, human recombinant |  |  | NANOG expression levels (LIF signaling; increasing amount of LIF under 3i treatment, 5 days, FIG. 4A): increased with the addition of LIF in a dosage dependent manner; STAT3 phosphorylation (LIF signaling; whole cell extracts, Western blot, FIG. 3H): weakly activates
